Results taken from US20100130457A1, “Phenothiazine Derivatives for Treatment of Asthma” (Immune Control, Inc., priority 2008, published 2010).
Entries after “also recorded” stand apart in the source; their conditions may differ.

Legend:
[1] = tested on: isolated rabbit Purkinje fibers; assay: Action potential of isolated rabbit Purkinje fibers
Text: Further assessment in rabbit Punkinje fibers was undertaken to directly measure concentration-dependent changes in action potential induced by ICI-735.

[2] = tested on: BALB/c mice, Af-induced allergic airway inflammation and hyperresponsiveness; assay: Murine Aspergillus fumigatus (Af)-induced asthma model, methacholine-induced lung resistance / airway hyperresponsiveness; format: in vivo, mouse
Text: (§1) The following experiments were designed to test the efficacy of the compounds of the invention on a murine asthma model. A murine model of Aspergillus fumigatus (Af)-induced allergic airway inflammation and hyperresponsiveness was adapted from Haczku et al. (2001 Am. J. Respir. Cell Mol. Biol. 25: 45-50) to determine the activity of the candicate compounds (FIG. 2).
Briefly, BALB/c mice were sensitized intraperitoneally and challenged intranasally with Af extract as a form of a type of allergen challenge in the presence or absence of dexamethasone. With respect to sensitization, “naïve” mice received intranasal vehicle challenges only, with phosphate-buffered saline (PBS) where as “sensitized’ mice were injected intraperitoneally with 25 μg Af together with alum in 100 μl of PBS on days 1 and 14, followed by intranasal challenge on days 25, 26, and 27 with 25 μg of Af extract in 40 PBS μl in the presence or absence of dexamethasone (2.5 mg/kg in 100 μl saline). On day 28, sensitized mice were treated with the test compound (0.1, 1.0, 10 mg/kg) either one hour before or simultaneously with methacholine challenge (2.5, 5, 10, 20 mg/mL). Methacholine challenge is to induce airway constriction.
as §1, with “eradicate” for “candicate”, “11).” for “2).”
Briefly, BALB/c mice were sensitized intraperitoneally and challenged intranasally with Af extract as a form of a type of allergen challenge in the presence or absence of dexamethasone. With respect to sensitization, “naïve” mice received intranasal vehicle challenges only, with phosphate-buffered saline (PBS) where as “sensitized’ mice were injected intraperitoneally with 25 μg Af together with alum in 100 μl of PBS on days 1 and 14, followed by intranasal challenge on days 25, 26, and 27 with 25 μg of Af extract in 40 PBS μl in the presence or absence of dexamethasone (2.5 mg/kg in 100 μl saline) in combination with either o.g. treatment with ICI-735 (1 mg/kg or 10 mg/kg) or i.p. treatment with ICI-735 1 mg/kg. On day 28, sensitized mice were treated with methacholine challenge (2.5, 5, 10, 20 mg/mL). Methacholine challenge is to induce airway constriction.
With respect to the murine model of allergen induced AHR, BALB/c mice were sensitized and challenged via intranasal instillation of Aspergillus fumigatus (Af). […] Four hours after the last allergen challenge, airway function was assessed by flexivent. […]

[3] = tested on: panel of leukotriene and prostanoid receptors; assay: Receptor binding panel

NCC(=O)NCCN1CCN(CCCN2c3ccccc3Sc3ccc(C(F)(F)F)cc32)CC1 [ICI-735]
effect on action potential duration at 60% (APD60) and APD90 [1]: lack of effect | AHR in Af sensitized mice ([2]; i.p. 1 mg/ml two hours prior to each intranasal challenge, flexivent four hours after last challenge): significantly inhibited | decrease of lung resistance / airway hyper-responsiveness to methacholine ([2]; intraperitoneal, from 0.1 mg/kg, one hour before or with methacholine challenge, compared with dexamethasone 2.5 mg/kg): at least as effective as 2.5 mg/kg dexamethasone; also recorded: decreased airway hyperresponsiveness | effect on naive animal airway contraction ([2]; naive mice): no effect | decrease of lung resistance / airway hyper-responsiveness to methacholine ([2]; oral (o.g.), 1 mg/kg or 10 mg/kg): effective at decreasing lung resistance | binding to a panel of leukotriene and prostanoid receptors [3]: does not bind
